16 molecules from patent US20250304594A1, “METHYL (R)-2-(FLUOROMETHYL)-5-OXO-4-PHENYL-4,5,6,7-TETRAHYDRO-1H-CYCLOPENTA[B]PYRIDINE-3-CARBOXYLATE AND METHYL (R)-2-(FLUOROMETHYL)-5-OXO-4-PHENYL-1,4,5,7-TETRAHYDROFURO[3,4-B]PYRIDINE-3-CARBOXYLATE AS Cav1,2 ACTIVATORS” (Novartis AG, priority 2020, published 2025) can be followed below.

Assay [1] concerns the target T1, human CaV1.2 (Homo sapiens, UniProt Q13936).
T1 construct: expressed in transfected cells; host or cells: Flp-In 293 T-Rex (HEK293), monoclonal CaV1.2-HEK293(AUX) clone 2-19B; doxycycline-induced auxiliary subunits
The experiment in a line: Sophion QPatch dose-response assay, whole-cell voltage clamp of barium currents in CaV1.2-HEK293(AUX) cells. The format is cell-based. As to conditions: for Qpatch Emax: maximal fold change of peak inward current. The text has this: (§1) The monoclonal CaV1.2-HEK293(AUX) cell line constitutively expresses human CaV1.2 alpha1C (α1C) subunit (CACNA1C) and has doxycycline-inducible expression of the alpha2delta (α2Δ2) auxiliary subunit (CACNA2D2) and beta2 (02) auxiliary subunit (CACNB2). To generate the cell line, expression vectors pcDNA5.0/FRT-TO-CACNA2D2-FCS-P2A-CACNB2 and pCMV6-entry-CACNA1C were established via gene synthesis and cloning. Here, pcDNA5.0/FRT-TO plasmid is from Invitrogen, pCMV6-entry is from Origene, FCS stands for Furin Cleavage Site, P2A is a peptide self-cleavage sequence derived from porcine teschovirus-1, and FRT is the Flippase recognition target site. Next, parental line Flp-In™ 293 T-Rex (Invitrogen) was transfected with pcDNA5.0/FRT-TO-CACNA2D2-FCS-P2A-CACNB2 and Flippase vector pOG44 (Invitrogen) to establish targeted integration of the CACNA2D2-FCS-P2A-CACNB2 expression cassette into the pre-engineered FRT site in Flp-In™ 293 T-Rex. This intermediate cell line was then transfected with pCMV6-entry-CACNA1C to establish stable CACNA1C expression. Clonal isolation was achieved under Neomycin selection.
Electrophysiological Characterization of CaV1.2 Activators Using CaV1.2-HEK293(AUX) Cell Line and QPatch
(§2) 24 hours prior an electrophysiology experiment, doxycycline (1 μg/ml) was added to the growth medium (Table 6), and 25 μM of verapamil was co-applied to prevent calcium influx triggered cell death. Cell confluency should reach 70%-80% right before the experiment. To harvest cells (from a T175 cm^2 flask as an example), growth media were removed completely, and the cells were rinsed with 10 mL of D-PBS. D-PBS was aspirated, and 10 mL of Detachin (Genlantis) was added and the plate was placed in a 37° C. incubator for 10 minutes. Detached cells were placed into a 15 mL conical tube and spun at 1000 rpm for 2 minutes. Supernatant was removed, and cells were re-suspended in QPatch complete media (Table 7) to desired cell density of 1.5-3 million cells per QPatch run. Each experimental run uses 1.5 mL of cells.
(§3) The cells suspension was taken to the Sophion QPatch platform that uses whole-cell voltage clamp to measure barium currents conducted through CaV1.2 on single-hole QPlates. Extracellular and intracellular patch clamp solutions are described in Tables 7 and 8, respectively. A dose-response assay protocol was used to determine the maximal fold change of peak inward current (Emax) and potency (EC50) of each compound. The protocol had eight liquid periods. The first liquid period was to stabilize current amplitude, which was monitored using repetitive 200-ms voltage pulses stepping from −80 mV to 0 mV. The second liquid period was to determine baseline current amplitude in the presence of vehicle control, using a single 20-ms voltage pulse stepping from −80 mV to 0 mV. The third through eighth liquid periods were used to ascertain a 6-dose response to compound treatments, also using single 20-ms voltage pulses stepping from −80 mV to 0 mV. The EC50 was generated using the following equation Iconcentration=Ibase+(Ifull−Ibase)*c^n/(XC50^n+c^n), where c is the concentration and n is the Hill coefficient constant. Ifull is the maximal current achievable, and Ibase is 0. A channel biophysics assay protocol was used to determine channel gating properties including current-voltage relationship (IV curves), half-way channel activation voltage (V1/2), rate of channel inactivation (tau), and amplitude of tail current. Among these, V1/2 was derived from fitting equation G(V)=Gvmin+(Gvmax−Gvmin)/(1+exp(−(V−V½)/Vslope)), where G stands for conductance, Gvmin equals 0, Gvmax is the maximal conductance, and Vslope is a slope factor. G(V) was pre-calculated from equation G(V)=I(V)/(V−0.06), for each experimentally applied depolarization potential (V) and the corresponding current amplitude (I(V)), and 0.06 in the equation was the experimentally determined reversal potential in volts. The protocol had four liquid periods.
(In general: The patch-clamp technique gives a direct electrical read-out from membranes.)

Assay [2] addresses T1, human CaV1.2. The experiment in a line: QPatch channel biophysics assay (channel gating, V1/2 of activation, inactivation) in CaV1.2-HEK293(AUX) cells. Format: cell-based.
Excerpt: as §1, with “selection. A cell clone (2-19B) with good voltage-dependent Barium current (see electrophysiology methods below) was selected for characterization of CaV1.2 activators.” for “selection.”
as §2
as §3, with “The protocol had four liquid periods.” left out

The mark [3] stands for this setting: Table 9, 6-point dose response, 10 determinations per concentration, n = 1 unless * n = 2.
[4] abbreviates: Table 9, shift of half-way channel activation voltage V1/2.
Setting [5] is: Table 10 comparative examples, single enantiomers of reported racemates.

T1 sequence (Q13936 1-2138 isoform Q13936-23): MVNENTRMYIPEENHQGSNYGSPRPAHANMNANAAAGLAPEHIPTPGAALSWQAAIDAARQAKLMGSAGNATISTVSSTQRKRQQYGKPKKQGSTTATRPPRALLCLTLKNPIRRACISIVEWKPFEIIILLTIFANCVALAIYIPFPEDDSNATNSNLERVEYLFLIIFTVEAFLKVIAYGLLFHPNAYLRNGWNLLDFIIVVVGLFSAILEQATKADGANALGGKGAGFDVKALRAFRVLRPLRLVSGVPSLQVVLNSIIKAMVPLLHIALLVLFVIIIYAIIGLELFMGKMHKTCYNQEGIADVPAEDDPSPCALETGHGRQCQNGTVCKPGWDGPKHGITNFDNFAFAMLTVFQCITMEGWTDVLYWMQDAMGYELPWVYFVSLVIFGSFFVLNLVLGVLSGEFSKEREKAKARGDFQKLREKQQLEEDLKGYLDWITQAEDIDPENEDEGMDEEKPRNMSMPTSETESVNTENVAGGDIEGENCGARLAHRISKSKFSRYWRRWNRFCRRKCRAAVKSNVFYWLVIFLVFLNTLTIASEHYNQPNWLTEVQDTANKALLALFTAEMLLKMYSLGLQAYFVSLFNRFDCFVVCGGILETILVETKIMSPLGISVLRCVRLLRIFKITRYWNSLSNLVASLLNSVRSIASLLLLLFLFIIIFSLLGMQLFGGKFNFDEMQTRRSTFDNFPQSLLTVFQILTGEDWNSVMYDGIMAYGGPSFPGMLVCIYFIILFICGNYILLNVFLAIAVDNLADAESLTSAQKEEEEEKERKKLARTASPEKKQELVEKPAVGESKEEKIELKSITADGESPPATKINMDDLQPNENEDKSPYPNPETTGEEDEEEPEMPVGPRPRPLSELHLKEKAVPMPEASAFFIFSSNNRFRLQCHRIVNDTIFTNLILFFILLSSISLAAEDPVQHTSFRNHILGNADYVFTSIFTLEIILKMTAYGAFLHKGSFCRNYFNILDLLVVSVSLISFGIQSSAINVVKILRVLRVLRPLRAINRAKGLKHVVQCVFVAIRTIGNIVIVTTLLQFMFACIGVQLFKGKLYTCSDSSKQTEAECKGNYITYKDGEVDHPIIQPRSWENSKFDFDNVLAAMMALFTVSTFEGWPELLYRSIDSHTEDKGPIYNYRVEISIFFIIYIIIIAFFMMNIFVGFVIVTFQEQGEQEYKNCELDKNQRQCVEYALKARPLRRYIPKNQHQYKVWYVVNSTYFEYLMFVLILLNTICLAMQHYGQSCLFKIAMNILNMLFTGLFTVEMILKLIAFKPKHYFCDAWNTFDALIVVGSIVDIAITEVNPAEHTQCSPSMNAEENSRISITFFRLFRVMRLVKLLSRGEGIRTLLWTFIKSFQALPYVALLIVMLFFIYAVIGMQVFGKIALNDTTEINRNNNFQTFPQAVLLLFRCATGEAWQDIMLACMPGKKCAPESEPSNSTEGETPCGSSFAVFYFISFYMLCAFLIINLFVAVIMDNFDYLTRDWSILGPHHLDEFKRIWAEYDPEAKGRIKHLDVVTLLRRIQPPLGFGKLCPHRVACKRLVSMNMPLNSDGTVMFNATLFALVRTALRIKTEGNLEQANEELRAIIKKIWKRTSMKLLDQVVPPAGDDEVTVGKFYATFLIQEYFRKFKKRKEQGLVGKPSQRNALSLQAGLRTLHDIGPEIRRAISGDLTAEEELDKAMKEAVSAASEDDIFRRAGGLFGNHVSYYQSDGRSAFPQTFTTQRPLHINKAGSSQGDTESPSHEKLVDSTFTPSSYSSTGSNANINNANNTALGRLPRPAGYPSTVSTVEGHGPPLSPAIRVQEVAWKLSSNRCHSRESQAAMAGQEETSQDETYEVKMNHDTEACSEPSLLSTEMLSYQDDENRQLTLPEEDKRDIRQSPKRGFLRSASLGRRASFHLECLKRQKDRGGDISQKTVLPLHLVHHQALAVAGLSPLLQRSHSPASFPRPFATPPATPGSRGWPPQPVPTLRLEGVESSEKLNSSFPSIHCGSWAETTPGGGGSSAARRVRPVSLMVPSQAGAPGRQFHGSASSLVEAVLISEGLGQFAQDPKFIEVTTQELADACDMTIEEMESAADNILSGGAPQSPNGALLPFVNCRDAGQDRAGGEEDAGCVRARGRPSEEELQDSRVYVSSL
T1 sequence (Q9NY47 19-1001 partner limits assumed): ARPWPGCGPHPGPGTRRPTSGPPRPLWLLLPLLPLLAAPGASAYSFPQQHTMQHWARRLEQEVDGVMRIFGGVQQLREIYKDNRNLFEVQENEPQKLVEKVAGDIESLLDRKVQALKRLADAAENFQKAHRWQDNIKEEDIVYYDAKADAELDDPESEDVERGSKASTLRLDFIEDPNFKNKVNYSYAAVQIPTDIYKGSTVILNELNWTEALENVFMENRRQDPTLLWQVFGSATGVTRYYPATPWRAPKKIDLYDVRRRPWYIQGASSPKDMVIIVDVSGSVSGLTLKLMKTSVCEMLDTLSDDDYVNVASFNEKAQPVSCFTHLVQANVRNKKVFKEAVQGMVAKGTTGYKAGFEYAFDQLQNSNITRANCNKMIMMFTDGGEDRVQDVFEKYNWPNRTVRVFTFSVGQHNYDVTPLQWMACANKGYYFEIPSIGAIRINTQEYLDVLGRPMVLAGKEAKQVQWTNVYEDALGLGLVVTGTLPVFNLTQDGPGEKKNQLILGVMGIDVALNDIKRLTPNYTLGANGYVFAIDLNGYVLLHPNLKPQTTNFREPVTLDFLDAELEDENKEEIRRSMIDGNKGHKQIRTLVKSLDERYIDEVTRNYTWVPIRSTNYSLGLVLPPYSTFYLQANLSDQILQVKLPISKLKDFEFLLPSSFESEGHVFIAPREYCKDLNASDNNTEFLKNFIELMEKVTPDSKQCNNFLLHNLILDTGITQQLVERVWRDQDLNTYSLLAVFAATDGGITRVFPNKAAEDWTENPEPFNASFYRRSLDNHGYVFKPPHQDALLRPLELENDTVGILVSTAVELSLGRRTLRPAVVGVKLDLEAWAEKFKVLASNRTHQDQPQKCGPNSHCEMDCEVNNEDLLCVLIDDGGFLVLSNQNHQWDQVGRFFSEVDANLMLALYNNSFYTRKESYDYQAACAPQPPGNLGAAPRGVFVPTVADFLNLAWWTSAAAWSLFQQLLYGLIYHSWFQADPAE
T1 sequence (Q9NY47 1002-1150 partner limits assumed): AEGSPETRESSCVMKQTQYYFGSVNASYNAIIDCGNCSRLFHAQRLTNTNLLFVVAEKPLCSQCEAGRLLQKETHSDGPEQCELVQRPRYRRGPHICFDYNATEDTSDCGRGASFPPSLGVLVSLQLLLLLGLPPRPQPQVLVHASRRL
T1 sequence (Q08289 whole entry partner): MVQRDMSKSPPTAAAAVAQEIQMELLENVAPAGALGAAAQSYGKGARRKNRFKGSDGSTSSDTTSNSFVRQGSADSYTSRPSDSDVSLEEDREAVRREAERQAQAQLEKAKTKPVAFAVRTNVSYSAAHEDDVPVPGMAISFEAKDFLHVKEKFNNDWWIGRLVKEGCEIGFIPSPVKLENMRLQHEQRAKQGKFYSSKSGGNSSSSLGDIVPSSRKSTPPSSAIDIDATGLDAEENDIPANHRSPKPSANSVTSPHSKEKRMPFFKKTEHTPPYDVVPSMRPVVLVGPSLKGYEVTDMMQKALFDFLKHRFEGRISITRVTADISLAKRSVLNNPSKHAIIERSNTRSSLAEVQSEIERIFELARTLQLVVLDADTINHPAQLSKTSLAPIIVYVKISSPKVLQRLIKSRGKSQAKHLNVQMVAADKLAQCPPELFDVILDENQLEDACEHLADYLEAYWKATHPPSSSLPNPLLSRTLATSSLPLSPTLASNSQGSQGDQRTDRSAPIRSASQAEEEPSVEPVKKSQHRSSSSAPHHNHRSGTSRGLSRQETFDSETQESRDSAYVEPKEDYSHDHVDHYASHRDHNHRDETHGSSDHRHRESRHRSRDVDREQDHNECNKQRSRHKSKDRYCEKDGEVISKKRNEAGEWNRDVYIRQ

The term EC50 denotes the concentration needed to bring the measured effect to its halfway point. For `COC(=O)C1=C(CF)NC2=C(C(=O)CC2)[C@H]1c1cccc(F)c1CC(F)(F)F` (single isomer, unassigned) [Example 25], the EC50 on human CaV1.2 [1] (setting [3]) was determined as 40 nM. In addition, the “Qpatch Emax” value on human CaV1.2 [1] (Table 9, n = 1 unless * n = 2) is on record as 1.7. Also, the “Biophysics voltage shift (mV)” value at human CaV1.2 [2] (setting [4]) is listed as −4.2 mV.

In the case of `COC(=O)C1=C(C)NC(C)=C([N+](=O)[O-])[C@H]1c1ccccc1C(F)(F)F` (single isomer, unassigned) [reference compound], the “Qpatch Emax” value at human CaV1.2 [1] (Table 10 comparative examples) is reported as 3.9.

`COC(=O)C1=C(CF)NC2=C(C(=O)CC2)[C@H]1c1cc(F)cc(F)c1[C@H](C)F` (single isomer, unassigned) [Example 29, methyl (R)-4-(3,5-difluoro-2-((S or R)-1-fluoroethyl)phenyl)-2-(fluoromethyl)-5-oxo-4,5,6,7-tetrahydro-1H-cyclopenta[b]pyridine-3-carboxylate] had an EC50 on human CaV1.2 [1] (setting [3]) of 50 nM. For the same molecule, the “Qpatch Emax” value at human CaV1.2 [1] (Table 9, n = 1 unless * n = 2) is 1.4.

For `CCOC(=O)C1=C(C)NC2=C(C(=O)OC2)[C@H]1c1ccccc1OCc1ccccc1` (single isomer, unassigned) [RS30124, reference compound], the “Qpatch Emax” value on human CaV1.2 [1] (Table 10 comparative examples) came to 4.3. Besides, it took 45 nM to reach a half-maximal effect on human CaV1.2 [1] (setting [5]) (EC50). Moreover, the “Biophysics voltage shift (mV)” value on human CaV1.2 [2] (Table 10 comparative examples) is on record as −15.4 mV.

`COC(=O)C1=C(CF)NC2=C(C(=O)CC2)[C@H]1c1cccc(F)c1[C@@H](C)F` (single isomer, unassigned) [Example 27, methyl (R)-4-(3-fluoro-2-((R or S)-1-fluoroethyl)phenyl)-2-(fluoromethyl)-5-oxo-4,5,6,7-tetrahydro-1H-cyclopenta[b]pyridine-3-carboxylate] registered an EC50 on human CaV1.2 [1] (setting [3]) of 30 nM. Also, at human CaV1.2 [1] (Table 9, n = 1 unless * n = 2), the “Qpatch Emax” value stood at 1.5. In addition, the “Biophysics voltage shift (mV)” value at human CaV1.2 [2] (setting [4]) was −8.7 mV.

`COC(=O)C1=C(CF)NC2=C(C(=O)OC2)[C@H]1c1ccccc1C(F)(F)F` (single isomer, unassigned) [Example 24] showed an EC50 at human CaV1.2 [1] (setting [3]) of 160 nM.

`CCc1ccccc1[C@H]1C(C(=O)OC)=C(CF)NC2=C1C(=O)OC2` (single isomer, unassigned) [Example 30] returned an EC50 at human CaV1.2 [1] (setting [3]) of 90 nM. Further, on human CaV1.2 [1] (Table 9, n = 1 unless * n = 2), the “Qpatch Emax” value worked out at 1.8.

`COC(=O)C1=C(CF)NC2=C(C(=O)CC2)[C@H]1c1cccc(F)c1CC(F)F` (single isomer, unassigned) [Example 26] gave an EC50 at human CaV1.2 [1] (setting [3]) of 300 nM. Moreover, on human CaV1.2 [1] (Table 9, n = 1 unless * n = 2), the “Qpatch Emax” value is 2.0. Moreover, the “Biophysics voltage shift (mV)” value at human CaV1.2 [2] (setting [4]) is −4.3 mV.

`COC(=O)C1=C(CF)NC2=C(C(=O)OC2)[C@H]1c1ccccc1C1CC1` (single isomer, unassigned) [Example 22] registered an EC50 on human CaV1.2 [1] (setting [3]) of 50 nM. Moreover, the “Qpatch Emax” value at human CaV1.2 [1] (Table 9, n = 1 unless * n = 2) stood at 2.8. Besides, the “Biophysics voltage shift (mV)” value on human CaV1.2 [2] (setting [4]) is −8.6 mV.

On to `COC(=O)C1=C(CF)NC2=C(C(=O)OC2)[C@H]1c1cc(F)cc(F)c1CC(F)F` (single isomer, unassigned) [Example 12], for which the EC50 at human CaV1.2 [1] (setting [3]) is 80 nM. Moreover, the “Qpatch Emax” value on human CaV1.2 [1] (Table 9, n = 1 unless * n = 2) came to 2.3. In addition, on human CaV1.2 [2] (setting [4]), the “Biophysics voltage shift (mV)” value was −3.4 mV.

`COC(=O)C1=C(C(F)F)NC2=C(C(=O)OC2)[C@H]1c1cccc(F)c1[C@@H](C)F` (single isomer, unassigned) [Example 31, methyl (R)-2-(difluoromethyl)-4-(3-fluoro-2-((R or S)-1-fluoroethyl)phenyl)-5-oxo-1,4,5,7-tetrahydrofuro[3,4-b]pyridine-3-carboxylate]: at human CaV1.2 [1] (setting [3]), the EC50 was determined as 290 nM. Further, the “Qpatch Emax” value at human CaV1.2 [1] (Table 9, n = 1 unless * n = 2) turned out to be 1.6.

As to `COC(=O)C1=C(C)NC2=C(C(=O)OC2)[C@H]1c1ccccc1C` (single isomer, unassigned) [CAS# 85825-32-7, reference compound], a half-maximal effect on human CaV1.2 [1] (setting [5]) (EC50) was put at 2240 nM.

Turning to `COC(=O)C1=C(CF)NC2=C(C(=O)OC2)[C@H]1c1cc(F)ccc1OC(F)F` (single isomer, unassigned) [Example 20], the EC50 on human CaV1.2 [1] (setting [3]) turned out to be 220 nM. Moreover, on human CaV1.2 [1] (Table 9, n = 1 unless * n = 2), the “Qpatch Emax” value came out at 3.0. The “Biophysics voltage shift (mV)” value on human CaV1.2 [2] (setting [4]) was −8.5 mV.

Consider `COC(=O)C1=C(CF)NC2=C(C(=O)OC2)[C@H]1c1cc(F)ccc1C1CC1` (single isomer, unassigned) [Example 21], for which the EC50 at human CaV1.2 [1] (setting [3]) came to 30 nM. In addition, the “Qpatch Emax” value at human CaV1.2 [1] (Table 9, n = 1 unless * n = 2) was 2.8. Also, at human CaV1.2 [2] (setting [4]), the “Biophysics voltage shift (mV)” value was −8.1 mV.

On to `COC(=O)C1=C(CF)NC2=C(C(=O)OC2)[C@H]1c1cccc(F)c1OC(F)F` (single isomer, unassigned) [Example 19], for which the EC50 at human CaV1.2 [1] (setting [3]) was determined as 60 nM. Further, the “Qpatch Emax” value on human CaV1.2 [1] (Table 9, n = 1 unless * n = 2) is 1.8. In addition, at human CaV1.2 [2] (setting [4]), the “Biophysics voltage shift (mV)” value is listed as −6.7 mV.

`COC(=O)C1=C(CF)NC2=C(C(=O)CC2)[C@H]1c1cc(F)cc(F)c1C1CC1` (single isomer, unassigned) [Example 14] yielded an EC50 at human CaV1.2 [1] (setting [3]) of 90 nM. For the same molecule, the “Qpatch Emax” value on human CaV1.2 [1] (Table 9, n = 1 unless * n = 2) was found to be 1.9. For the same molecule, the “Biophysics voltage shift (mV)” value at human CaV1.2 [2] (setting [4]) is −5.5 mV.
